Laboratory results taken from paper PMC6277434, “Discovery of a potent HMG-CoA reductase degrader that eliminates statin-induced reductase accumulation and lowers cholesterol” (Nature Communications, 2018).

Tested on: Hmgcr mRNA
Assay: RT-qPCR of Hmgcr mRNA in SRD-13A cells
Format: cell-based, Chinese hamster
Parameters: HMGCR mRNA level, mean: scale not given here
Settings: for HMGCR mRNA level, mean: SRD-13A, 16 h
Method: Cells were treated as described in corresponding figure legends, then total RNA was extracted from cells or mouse livers using TRI Reagent (T9424, Sigma-Aldrich). Equal amounts of RNA from cells or mice receiving the same treatment were pooled were used for cDNA synthesis with oligo dT and reverse transcriptase MLV (Promega). Gene expression was analyzed by quantitative real-time PCR on a Stratagene Mx30005PTM Q-PCR Systems. The primers used were listed in Supplementary Tables 2–4.

`CC[C@H](C)C(=O)O[C@H]1C[C@@H](C)C=C2C=C[C@H](C)[C@H](CC[C@@H]3C[C@@H](O)CC(=O)O3)[C@H]21` [Lovastatin, lovastatin] was tested, and the “change in the amounts of Hmgcr mRNA” value (SRD-13A cells, lovastatin 16 h) was “no change”, the “HMGCR mRNA level, mean” value (lovastatin 0.001 uM) was 1 and the “HMGCR mRNA level, mean” value (lovastatin 0.003 uM) was 1.03. For the same compound, the “HMGCR mRNA level, mean” value (lovastatin 0.01 uM) was 1.0471, the “HMGCR mRNA level, mean” value (lovastatin 0.03 uM) was 1.185 and the “HMGCR mRNA level, mean” value (lovastatin 0.1 uM) was 1.052. The “HMGCR mRNA level, mean” value (lovastatin 0.3 uM) was 0.9958, the “HMGCR mRNA level, mean” value (lovastatin 1 uM) was 1.197 and the “HMGCR mRNA level, mean” value (lovastatin 3 uM) was 1.009. The “HMGCR mRNA level, mean” value (lovastatin 10 uM) was 1.04.
